Results published in patent publication US12729388B2, “Methods and systems for producing cellulosic ethanol by biomass saccharification and fermentation” (ZHEJIANG HUAKANG PHARMACEUTICAL CO., LTD., priority 2021, dated 2026).

Tested on: cellulase Cellic CTec 2
Experiment: Validation experiment of the inhibitory effect of glucose and ethanol on the enzymatic hydrolysis reaction
Format: biochemical
Details: Group C: 50 g/L ethanol externally added, corn cob waste 15% dry substrate, cellulase 4% of dry substrate, pH 5.0~6.0, 50° C., 300 rpm
Experimental: Validation experiment of the inhibitory effect of glucose and ethanol on the enzymatic hydrolysis reaction. A reaction system was prepared using a citric acid buffer solution with a concentration of 0.1 mol/L. The citric acid buffer solution was added to a corn cob waste system in which a content of the biomass feedstock was 15% of a dry substrate, a pH of the mixture was maintained at 5.0~6.0, and cellulase […] a content of 4% of the dry substrate was added to the mixture to prepare three groups of 1 L reaction systems. [table] The three reaction systems were subjected to enzymatic hydrolysis at 50° C. for 72 hours under a condition of stirring at 300 rpm. Samples were taken from each reaction system every 12 hours to measure an amount of glucose released by the enzymatic hydrolysis, and results are shown in FIG. 3. FIG. 3 is a schematic diagram illustrating that glucose release concentration changes over time in an enzymatic hydrolysis system with external addition of glucose and ethanol according to some embodiments of the present disclosure.

amount of glucose released during the 72-hour enzymatic hydrolysis, lower than that of the control Group A: 8%
SMILES: CCO [ethanol]
